Data as given in PubChem BioAssay (NCI).
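Exposure lasted 48 hours, with cells grown in 96-well plates and compounds tested at five concentrations. GI50 is the concentration that inhibits growth by half. At the TGI there is no net growth.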

Assays:
Experiment in all cases: NCI anticancer screen, dose series, 48 h
ACHN renal = tested on: ACHN renal
MDA-MB-231 breast = tested on: MDA-MB-231 breast
SK-MEL-2 melanoma = tested on: SK-MEL-2 melanoma
EKVX NSCLC = tested on: EKVX NSCLC
HS 578T breast = tested on: HS 578T breast
HT29 colon = tested on: HT29 colon
SF-268 CNS = tested on: SF-268 CNS
HOP-62 NSCLC = tested on: HOP-62 NSCLC
COLO 205 colon = tested on: COLO 205 colon
OVCAR-4 ovarian = tested on: OVCAR-4 ovarian

Row | Structure (SMILES) | TGI (ACHN renal) [µM] | TGI (MDA-MB-231 breast) [µM] | TGI (SK-MEL-2 melanoma) [µM] | TGI (EKVX NSCLC) [µM] | TGI (HS 578T breast) [µM] | TGI (HT29 colon) [µM] | TGI (SF-268 CNS) [µM] | TGI (HOP-62 NSCLC) [µM] | TGI (COLO 205 colon) [µM] | TGI (OVCAR-4 ovarian) [µM] | GI50 (ACHN renal) [µM] | GI50 (EKVX NSCLC) [µM] | GI50 (HT29 colon) [µM] | GI50 (COLO 205 colon) [µM] | GI50 (OVCAR-4 ovarian) [µM] | GI50 (MDA-MB-231 breast) [µM] | GI50 (SK-MEL-2 melanoma) [µM] | GI50 (SF-268 CNS) [µM] | GI50 (HOP-62 NSCLC) [µM] | GI50 (HS 578T breast) [µM]
1 | CCCCCC/C=C\CCCCCCCCCc1cccc(OC)c1O | > 100 | > 100 | > 100 | > 100 | > 100 | > 100 | > 100 | > 100 | > 100 |  |  |  |  |  |  |  |  |  |  | 
2 | CC(C)(C)CC(C)(C)c1cc2c(O)c(c1)Cc1cc(C(C)(C)CC(C)(C)C)cc(c1O)Cc1cc(C(C)(C)CC(C)(C)C)cc(c1O)Cc1cc(C(C)(C)CC(C)(C)C)cc(c1O)Cc1cc(C(C)(C)CC(C)(C)C)cc(c1O)Cc1cc(C(C)(C)CC(C)(C)C)cc(c1O)Cc1cc(C(C)(C)CC(C)(C)C)cc(c1O)Cc1cc(C(C)(C)CC(C)(C)C)cc(c1O)C2 | > 100 |  | > 100 | > 100 |  | > 100 | > 100 | > 100 | > 100 | > 100 |  |  |  |  |  |  |  |  |  | 
3 | CC(C)CCCC(C)[C@H]1CCC2C3CC=C4C[C@@H](OC(=O)CC(CC(=O)[O-])C(=O)[O-])CC[C@]4(C)C3CC[C@@]21C.N.N.[Pt+4] (some centres undefined) | > 100 |  |  | > 100 |  | > 100 |  |  | > 100 | > 100 | 47.6 | > 100 | > 100 | > 100 | > 100 |  |  |  |  | 
4 | O=C(/C=C/c1ccco1)N1CCN(Cc2ccccc2)CC1 | > 100 |  |  | > 100 |  | > 100 | > 100 | > 100 |  | > 100 |  |  |  |  |  |  |  |  |  | 
5 | CCOc1ccc2c(c1)[n+]([O-])c(-c1ccc([N+](=O)[O-])cc1)c(N)[n+]2[O-] | > 100 |  | > 100 | > 100 |  | > 100 | > 100 | > 100 | > 100 | > 100 |  |  |  |  |  |  |  |  |  | 
6 | O=C1Nc2cc(-c3ccc(O)cc3)ccc2/C1=C/c1ccc[nH]1 | 3.6 | 6.66 | > 25.7 |  |  | > 33.8 | > 100 | > 100 | 12.5 | > 51.3 | 0.0504 |  | 0.979 | 2.78 | 0.302 | 0.154 | 0.647 | 0.44 | 0.559 | 
7 | COc1cc2ccnc(-c3n[nH]c4cc(OC)c(OC)cc34)c2cc1OC | > 100 |  | > 100 | > 100 |  | > 100 | > 100 | > 100 | > 100 | > 100 |  |  |  |  |  |  |  |  |  | 
8 | CCN(CC)CCOc1ccccc1-n1c(C)ccc1-c1ccccc1 | 30.3 | 20.7 |  | 33.6 | 35.9 | 20.8 | 30.6 | 31.1 | 22.5 | 25.7 | 15.5 | 15.8 | 6.22 | 9.9 | 12.2 | 6.54 |  | 15.6 | 17 | 12.8
9 | COc1ccc(-c2cncn2-c2ccc(-c3nc4cc(OC)c(OC)c(OC)c4s3)cc2)cc1N | > 100 | > 100 | > 100 | > 100 | > 100 | > 100 | > 100 |  | 20.6 | > 100 | 5.59 | 7.54 | 3.87 | 2.94 | 6.29 | > 100 | 6.04 | 47 |  | 28.3
10 | Cc1cc(O)cc(-c2nn(C)cc2-c2cc(N3CCOCC3)nc(-c3cccnc3)n2)c1 | 41.2 | 38 | 31.1 | > 100 | 9.06 | 21.9 | > 100 |  | 9.57 | > 100 | 3.68 | 10.5 | 3.39 | 2.9 | 7.74 | 5.82 | 6.28 | 7.29 |  | 2.04
11 | COc1ccc(C#CC2=C(Br)C(=O)OC2)cc1 | 13.2 | 27.6 | > 50 | 17 | 28.2 | 10.5 | > 50 |  | 29.1 | 11.4 | 3.56 | 6.9 | 2.42 | 2.56 | 2.46 | 9.48 | 23 | 16.9 |  | 7.43
12 | CC(C)(C)c1cc(C#N)c2c(c1)C(=O)OC2(c1ccccc1)c1ccccc1C#N (centres undefined) | > 100 |  | > 100 | > 100 |  | > 100 | > 100 | > 100 | > 100 | > 100 |  |  |  |  |  |  |  |  |  | 
13 | O=C(Cc1ccccc1)N/N=C(/c1nc2ccc([N+](=O)[O-])cc2[nH]c1=O)C(O)c1ccco1 (centres undefined) | > 100 |  | > 100 | > 100 |  | > 100 | > 100 | > 100 | > 100 | > 100 |  |  |  |  |  |  |  |  |  | 
14 | OCC(O)C(OC1OC(CO)C(O)C(O)C1O)c1nn(-c2ccc(Cl)cc2)c2nc3cc(Cl)c(Cl)cc3nc12 (centres undefined) | > 100 |  |  | > 100 |  | > 100 | > 100 | > 100 |  | > 100 |  |  |  |  |  |  |  |  |  | 
15 | O=C(/C=C/c1cc(O)ccc1O)c1ccc(Cl)cc1 | > 100 | 43.5 | > 100 | 54.7 |  | > 100 | > 100 | 52.2 | > 100 |  | 25.2 | 23.4 | 54.4 | 38.2 |  | 11.7 | 60.7 | 20.7 | 20.5 | 
16 | CC(C(=O)c1ccc(O)cc1)C1(O)C(=O)Nc2c(Cl)cc(Cl)cc21 (centres undefined) | 28.3 |  | > 100 | > 100 |  | > 100 | > 100 | > 100 | > 100 | 50.5 |  |  |  |  |  |  |  |  |  | 
17 | [N-]=[N+]=Nc1nnc(CCCCc2nnc(N=[N+]=[N-])o2)o1 | > 100 |  | > 100 | > 100 |  | > 100 | > 100 | > 100 | > 100 | > 100 |  |  |  |  |  |  |  |  |  | 
18 | COc1ccc2c(ccc3oc([N+](=O)[O-])cc32)c1 | 0.232 | 0.596 | 0.292 |  | 1.58 | 0.874 | 1.87 | 2.48 | 0.389 | 2.01 | 0.0274 |  | 0.202 | 0.172 | 0.422 | 0.167 | 0.107 | 0.176 | 0.412 | 0.301
